The values below come from patent US5872124A, “Treatment of diseases of the central nervous system using uric acid as a scavenger of peroxynitrite” (Thomas Jefferson University, priority 1996, dated 1999).

Each structure is given as a SMILES string.

Data set [1] has as its system experimental allergic encephalomyelitis (EAE), MBP-specific T cell transfer. Briefly: Clinical severity of adoptive transfer EAE in Lewis rats. Type of data set: in vivo. The text has this: (§1) Induction of EAE in rats by adoptive transfer of MBP-specific T cells or in SJL or SWXJ-14 mice by immunization with MBP or PLP 139-151, a peptide derived from […] [8], results in variable disease. We have scored the clinical systems of EAE as tabulated below.
______________________________________
(§2) Severity scores and symptoms of Experimental Allergic
(§3) 1 piloerection, tail weakness
(§4) 3 hind limb weakness/paralysis
(§5) 4 hind and forelimb paralysis
(§6) In FIG. 1, EAE was elicited in 11 week old female Lewis rats by the adoptive transfer of 20×10^6 cells of the MBP-specific line 5HGBP.G5 activated by stimulation with MBP and syngeneic APC 48 hours previously and NO levels measured 5 days after transfer. In SWXJ-14 mice, EAE was triggered by two subcutaneous immunizations (d.0 and 7) with 100 μg PLP in CFA over two injection sites, and NO levels measured 18 days later. Results expressed represent the mean values obtained from a minimum of 4 animals. Peak severity of the symptoms of EAE ranged from 2-3 for the rats and 4-5 for the mice. NO was semi-quantitated using spin trapping with DETC and EPR-spectroscopy as described previously.
(§7) Rats were injected i.v. with 20×10^6 MBP-specific CD4 T cells activated in vitro. Two days later the animals were treated with a single dose of either PTIO (20 mg) or a mixture of PTIO (20 mg), indomethacin (1 mg), and allopurinol (13 mg). Treatment was continued on a daily basis until day 4 and animals were sacrificed for NO measurement the following day.

Data set [2] concerns nitric oxide (NO). Briefly: NO levels in spinal cord and brain of SJL mice with EAE. The format is in vivo. As to the method: (§8) SJL mice are immunized subcutaneously with pMBP in adjuvant to induce EAE, from which they often recover. Commencing ten days post-immunization, groups of mice (n=6) were treated once daily with 2 mg of either PTIO or carboxy-PTIO intraperitoneally and observed for clinical signs of EAE which were graded as detailed in Table 1. […] At 18 days […], NO determinations were performed in several mice from each group.

The next data set is described as follows: Water solubility. The format is physicochemical.
For data set [3], the system named is nitric oxide (NO). Put plainly: NO level in spinal cord of Lewis rats with adoptive transfer EAE (spin trapping, EPR). Type of data set: in vivo. The method, then: as §6, §7
A short description of data set [4]: Side-effects of PTIO in EAE. Type of data set: in vivo. The method, then: The biological half-life of carboxy-PTIO are estimated to be less than five minutes in the blood when injected i.v. or i.p. into either rats or mice. Approximately 75% of the PTIO administered to mice can be accounted for in excretions within 4 hours. Nevertheless, the clinical symptoms of animals subjected to the stimuli that induce EAE and treated with PTIO are clearly alleviated for at least 24 hours between doses. […] It is possible that the removal of a significant quantity of NO may reduce the amount of tissue damage to a level that the animal can cope with. However, we believe that it is possible that the transient reduction of NO accumulation in an inflammatory response may have more wide ranging effects for instance through the disturbance of regulatory circuits effecting the production of NO or one of the other related substances involved in immunopathology. […] Through its effects on the circulation, NO may play a role in facilitating access of MBP specific T cells to the brain which could be inhibited by PTIO. It is also conceivable that a PTIO derivative formed by its interaction with NO also has some protective effect. […]

Data set [5] has as its system experimental allergic encephalomyelitis (EAE), PLP immunization. Briefly: Survival of SWXJ-14 mice with EAE. Type of data set: in vivo. The method, then:
FIG. 14. Comparison of the survival of SWXJ-14 mice with EAE treated with PTIO and uric acid. SWXJ-mice were immunized with PLP in CFA as described for FIG. 12 and treated once daily with a 2 mg dose of uric acid or PTIO i.p. from day 5 to day 13, followed by two daily doses on day 14 and three daily doses thereafterward.
To more directly compare the action of PTIO and uric acid in EAE we have administered each of these agents in parallel to PLP-immunized SWXJ-14 mice. In these experiments the mice were immunized with PLP and treated with increasing doses of PTIO or uric acid beginning at day 5 after immunization.

In data set [6] the test system is experimental allergic encephalomyelitis (EAE), immunization-elicited. Put plainly: Clinical severity of immunization-elicited EAE in SJL mice. The format is in vivo.
Source text: as §1, §2, §3, §4, §5, §8

For data set [7] the following is noted: mice, within 4 hours [17]; cited from earlier work.

Turning to `CC1(C)N([O])C(c2ccccc2)=[N+]([O-])C1(C)C` [PTIO, 2-phenyl-4,4,5,5-tetramethylimidazoline-1-oxyl-3-oxide], in data set [1] (PTIO 20 mg daily from day 2 to day 4 after T cell transfer, alone or in mix), the “Symptoms of disease (FIG. 6)” value is listed as “little or no symptoms of disease”. For the same compound, the Clinical severity in data set [1] (Rat-adoptive transfer EAE, severity score 1-5, Table 2) amounted to 0.8; in data set [6] (SJL mouse - immunization EAE, severity score 1-5, Table 2), 0.8. The “Duration of alleviation of clinical symptoms between doses” value in data set [1] (animals subjected to stimuli that induce EAE (species not specified)) is “at least 24 hours”. For the same compound, the “Clinical symptoms of EAE” value in data set [1] (rats, MBP-specific T cell transfer, i.p. administration) is “forestall the appearance of clinical symptoms of EAE”; in data set [6] (SJL mice, i.p. administration) it was “forestall the appearance of clinical symptoms of EAE”. In the data set on nitric oxide (NO) [2] (2 mg once daily i.p., day 18), the “NO levels in spinal cord (FIG. 8)” value is recorded as “lower in the spinal cords”. Further, the “Levels of NO in spinal cord” value is “reduce levels of NO detected in spinal cord” in the data set on nitric oxide (NO) [2] (SJL mice, i.p. administration) and “reduce levels of NO detected in spinal cord” in the data set on nitric oxide (NO) [3] (rats, adoptive transfer EAE, i.p. administration). In addition, the NO-spinal cord with nitric oxide (NO) [2] (SJL mouse - immunization EAE, Table 2) was 1.6 mM; in the data set on nitric oxide (NO) [3] (Rat-adoptive transfer EAE, Table 2), “undetectable”. The Water solubility entry in the data set “Water solubility” was “not water soluble”. In data set [4], the Side-effects entry is listed as “without notable side-effects”. Further, the “Improvement in clinical signs of surviving mice (FIG. 14)” value in data set [5] (at termination of the experiment) is “a number were actually beginning to show some improvement in the clinical signs of their disease”. In addition, the “Mice still alive (FIG. 14)” value in data set [5] (several days after day 18, 2 mg i.p. once daily day 5-13, two doses day 14, then three daily) was found to be 40%. For the same compound, the “Onset and severity of EAE (FIG. 7)” value in data set [6] (2 mg once daily i.p. from day 10 post-immunization, n=6) was “delayed onset of disease and somewhat lessened severity by comparison with untreated animals”. Besides, the “Amount accounted for in excretions” value in data set [7] is recorded as “Approximately 75%”.
